# Results: the SangsterLogP compilation
structure (smiles),measurement,setting,value
CCCCN(CC)c1c([N+](=O)[O-])cc(C(F)(F)F)cc1[N+](=O)[O-],logD,pH 7.0,5.29
CSC(=S)Nc1ccc(Cl)c(Cl)c1,logP,,4.23
O=C(CCn1cnc([N+](=O)[O-])n1)NCCO,logP,,-1.32
Nc1c([N+](=O)[O-])cccc1[N+](=O)[O-],logP,,1.79
N#Cc1ccc(NN=C(C(F)(F)F)C(F)(F)F)c([N+](=O)[O-])c1,logD,pH 4.0,3.4
CCOC(=O)C(C(=O)OCC)=C(C(=O)OCC)C(=O)OCC,logP,,2.63
COc1ccc2[nH]c(N)nc2c1,logP,,0.57
CN1CCCC1=O,logP,,-0.54
CCS(=O)(=O)c1c([N+](=O)[O-])ncn1C,logP,,-0.37
O=[N+]([O-])c1ccc(/C=N/O)cc1,logP,,1.95
OC1CCCCCCCCCCC1,logP,,3.75
CN1CCCNCC1,logD,pH 13.0,-0.4
COC(=O)c1cc(S(N)(=O)=O)ccc1SCCCO,logP,,0.78
c1ccc(C23CCN(CC2)CC3)cc1,logD,pH 13.0,2.54
CC1C=CCN1 (stereo unspecified),logP,,1.87
CCCn1cnc2c(NC(C)=O)ncnc21,logP,,0.09
CCCCC(=O)OC,logP,,1.96
O=[N+]([O-])c1ccc(NN=C(C(F)(F)F)C(F)(F)F)c(C(F)(F)F)c1,logD,pH 4.0,4.6
CCOC(=S)NCCn1c([N+](=O)[O-])cnc1C,logD,pH 7.4,1.5
Cn1c(N)nc2ccc(Cl)cc21,logP,,2.01
CCOC(OCC)OCC,logD,pH 13.0,1.2
NC(=O)Nc1nc(-c2ccccc2)no1,logP,,1.76
Nc1ccc2c(n1)[nH]c1ccccc12,logD,pH 7.4,2.6
COC(=O)Nc1c(C)cccc1C,logP,,1.69
CN(C)/C=C/C#N,logP,,0.47
CC(=O)Nc1ccc(S(N)(=O)=O)cc1,logD,pH 2.1,0
CCCSP(=O)(OCC)Oc1cnn(-c2ccc(Cl)cc2)c1 (stereo unspecified),logP,,3.77
Cc1nc(N(C)C)nc(OC(=O)N(C)C)c1C,logP,,1.7
CCNC(=O)C1C2C=CC(C2)C1C(=O)NCC (stereo unspecified),logP,,0.99
O=C(O)CCCOc1ccc(Cl)cc1Cl,logD,pH 1.0,3.53
c1ncc2c(n1)-c1cn[nH]c1-2,logP,,0.14
O=C(/C=C/c1ccc([N+](=O)[O-])o1)N/N=C/c1ccc([N+](=O)[O-])o1,logD,pH 7.4,2.22
Cc1cc([N+](=O)[O-])cc2c1NC(=O)CN=C2c1ccccc1,logD,pH 7.4,2.33
CCN(C(=O)SCc1ccccc1)C(C)C(C)C (stereo unspecified),logP,,4.6
C=CCOC1=NS(=O)(=O)c2ccccc21,logP,,1.4
O=[N+]([O-])c1ccc(O)c(O)c1,logP,,1.66
N#Cc1sc2c(=O)c3ccccc3c(=O)c=2sc1C#N,logP,,2.84
Nc1ccccc1SSc1ccccc1N,logP,,3.05
CC(=O)OC(C)c1ccccc1 (stereo unspecified),logP,,2.3
CN(C)C(=O)SCCCCOc1ccccc1,logP,,3.28
COC(=O)CCCCC(=O)OC,logP,,1.03
CCCc1ncc([N+](=O)[O-])n1CCNC(=S)OC,logD,pH 7.4,1.94
N#Cc1cccc2cccnc12,logD,pH 7.4,1.39
Clc1cc(Cl)nc(-c2ccccc2)n1,logP,,4.17
O=C1C(F)=C(N2CC2)C(=O)C(N2CC2)=C1N1CC1,logP,,0.14
COC(=S)NCCn1c([N+](=O)[O-])cnc1C,logD,pH 7.4,1.09
c1ccc(-c2cc3ccccc3[nH]2)nc1,logP,,3.33
COc1cccc(N(C)C(=S)Oc2cccc(C(C)(C)C)c2)n1,logP,,5.18
O/N=C/c1ccncc1,logP,,0.77
Cc1ccc(O)c(-n2nc3ccccc3n2)c1,logP,,4.31
c1cnc2nc[nH]c2c1,logP,,0.3
Oc1ccc(C(F)(F)F)cc1,logP,,2.82
COC(=O)C(F)(F)F,logP,,0.6
C/C=C/C(C)=O,logP,,0.52
CCC1=C(N2CC2)C(=O)C(C)=C(N2CC2)C1=O,logP,,1.35
COC(=O)C1=CCCN(C)C1,logP,,0.35
CC(O)Cc1ccccc1 (stereo unspecified),logP,,1.97
c1ccc(CCCc2ccccc2)cc1,logP,,3.43
c1ccc(N2CCCC2)cc1,logP,,3.56
O=C1C=CC(=O)C(Cl)=C1,logP,,0.84
CCOC(=O)COC(=O)c1cc(Oc2ccc(C(F)(F)F)cc2Cl)ccc1[N+](=O)[O-],logP,,3.65
CNC=O,logP,,-0.97
COc1cc(C)c2c(c1OC)C1CCC(NCc3ccccc3)C(=O)CC1C(NC(C)=O)CC2 (stereo unspecified),logP,,3.58
Nc1ccn(C2CC(CO)C(O)C2O)c(=O)n1 (stereo unspecified),logP,,-2.41
Cn1c(N)nc2ncc(-c3ccccc3)cc21,logD,pH 7.4,2.23
CN(C(=O)COc1nc2ccccc2s1)c1ccccc1,logP,,3.23
CNC(=O)c1ccco1,logP,,0.23
O=c1n[n+]([O-])ccn1[C@@H]1O[C@H](CO)[C@@H](O)[C@H]1O,logP,,-2.43
N#CCC(=O)O,logD,pH 1.0,-0.76
CN(C)c1cccnc1,logP,,1.41
Cc1ccc(C=Cc2ncc([N+](=O)[O-])n2CO)cc1,logD,pH 7.4,2.25
NC(=S)N1CCCCC1,logP,,0.73
Cc1cccc(CC(=O)O)c1Nc1c(Cl)cccc1Cl,logP,,4.93
CN(C)c1ccc(C(=O)c2ccc(N(C)C)cc2)cc1,logP,,3.87
C=C(C)CN(CC)c1c([N+](=O)[O-])cc(C(F)(F)F)cc1[N+](=O)[O-],logP,,5.11
CC(O)CNC(=O)C(F)(F)Cn1cnc([N+](=O)[O-])n1 (stereo unspecified),logP,,-0.48
CN1CCCC1,logP,,0.92
Nc1ccc([C@@H](O)[C@@H](CO)NC(=O)C(Cl)Cl)cc1,logP,,-0.29
COc1ccc([N+](=O)[O-])cc1N,logP,,1.47
c1ccc(C2CN3CCSC3=N2)cc1 (stereo unspecified),logD,pH 9.8,1.84
O=C1CCc2cccc3c2N1CC3,logP,,1.6
CC1=C(N2CC2)C(=O)c2ccc(CCOC(N)=O)c(N3CC3)c2C1=O,logP,,0.16
CC(C)(NC(=O)C(Br)C(C)(C)C)c1ccccc1 (stereo unspecified),logP,,3.46
COC(=O)CC(C)C,logP,,1.82
O=C(CCBr)N1CCN(C(=O)CCBr)CC1,logP,,0.42
O=C1C(Br)=C(N2CC2)C(=O)C(Br)=C1N1CC1,logP,,2.03
CCCCNc1ccc(C(=O)OCCOCCOCCOCCOCCOCCOCCOCCOCCOC)cc1,logP,,2.45
c1ccc(COCc2ccccc2)cc1,logP,,3.31
N#CC(CCc1ccc(Cl)cc1)(Cn1cncn1)c1ccccc1 (stereo unspecified),logP,,3.23
NC(=O)Nc1cccc2cccnc12,logP,,1.62
COC(=O)CC#N,logP,,-0.47
[O-][n+]1ccccc1,logP,,-1.2
O=C1CC(Sc2nc3ccccc3s2)N1 (stereo unspecified),logP,,2.3
C=CC1(C)OC(=O)N(c2cc(Cl)cc(Cl)c2)C1=O (stereo unspecified),logP,,3.1
CNC1=CC(=O)c2ccccc2C1=O,logP,,1.74
Cc1ccc(/C=N/O)cc1,logP,,2.4
c1csc(C23CCCN2CCO3)c1 (stereo unspecified),logD,pH 7.4,1.05
Fc1cccc2cccnc12,logD,pH 7.4,2.19
N=C(N)c1cccc([N+](=O)[O-])c1,logD,pH 13.0,0.72
CCC1OC(=O)C(C)C(OC2CC(C)(OC)C(O)C(C)O2)C(C)C(OC2OCC(O)C(N=[N+]=[N-])C2O)C(C)(O)CC(C)C(=O)CC(O)C1(C)O (stereo unspecified),logP,,1.76
Oc1ccc(CCNCCCCCCNCCc2ccccc2)cc1O,logP,,1.88
C=CCN1CCc2nc(N)sc2CC1,logD,pH 10.6,1.48
COc1ccc2cc(C(C)C(=O)OCC(=O)N(C)CC(N)=O)ccc2c1 (stereo unspecified),logP,,1.37
NC(=O)c1nc[nH]c1N=NN(CCO)CCO,logD,pH 4.2,-1.04
CC(C)(C)c1cccc(C(C)(C)C)n1,logP,,4.14
C[C@@H]1CCC[C@H](C)N1,logD,pH 13.0,1.53
Cc1c(Cl)ccc(OC(C)C(=O)Nc2ccccc2)c1Cl (stereo unspecified),logP,,4.8
c1ccc(-c2ccncn2)cc1,logP,,1.92
CN(C)C1=CC(=O)C(N(C)C)=CC1=O,logP,,1.03
COc1c2c(cc3c1-c1ccc(OC)c(=O)cc1C(NC(C)=O)CC3)OCO2 (stereo unspecified),logD,pH 7.0,1.6
CCCSP(=O)(OCC)SCCC,logP,,3.59
